Data reported in ChEMBL document CHEMBL5674860, “Optimized Dual-Glo Assay to identify co-culture-induced drug vulnerabilities in 3D CRC models” (2024).

How the values were obtained:
Assay type in all cases: functional, Homo sapiens
Set-up in all cases: dose or concentration left out as unconfirmed
Colon cancer organoid [1] = assay: Optimized Dual-Glo assay to identify co-culture induced drug vulnerabilities using donated chemical probes and chemogenomics kinase set in O06 CRC organoid and F06 CAF mono and co-culture. […] Cell viability is reported both mono and co-culture models.
Colon cancer organoid [2] = assay: Optimized Dual-Glo assay to identify co-culture induced drug vulnerabilities using donated chemical probes and chemogenomics kinase set in O20 CRC organoid and F20 CAF mono and co-culture. […] Cell viability is reported both mono and co-culture models.
Colon cancer organoid [3] = assay: Optimized Dual-Glo assay to identify co-culture induced drug vulnerabilities using donated chemical probes and chemogenomics kinase set in O14 CRC organoid and F14 CAF mono and co-culture. […] Cell viability is reported both mono and co-culture models.
[4] = Culture type Co-Culture, Transduced with Lucferase2-P2A-EGFP lentivirus
[5] = Culture type Co-Culture, Transduced with Renilla-dsRed lentivirus
[6] = Culture type Mono-Culture, Transduced with Lucferase2-P2A-EGFP lentivirus
[7] = Culture type Mono-Culture, Transduced with Renilla-dsRed lentivirus

C=CC(=O)Nc1ccc2[nH]c(=O)n(C3CCN(Cc4ccc(-c5nc6cc[nH]c(=O)c6cc5-c5ccccc5)cc4)CC3)c2c1 [Borussertib]
Cell Viability (Colon cancer organoid [1]; [4]): 51.8578%
Cell Viability (Colon cancer organoid [1]; [5]): 132.383%
Cell Viability (Colon cancer organoid [1]; [6]): 55.1299%
Cell Viability (Colon cancer organoid [1]; [7]): 71.4174%
Cell Viability (Colon cancer organoid [2]; [4]): 47.4641%
Cell Viability (Colon cancer organoid [2]; [5]): 149.193%
Cell Viability (Colon cancer organoid [2]; [6]): 22.6881%
Cell Viability (Colon cancer organoid [2]; [7]): 97.2977%
Cell Viability (Colon cancer organoid [3]; [4]): 51.6115%
Cell Viability (Colon cancer organoid [3]; [5]): 159.043%
Cell Viability (Colon cancer organoid [3]; [6]): 54.7811%
Cell Viability (Colon cancer organoid [3]; [7]): 69.4418%

O=C(NOCC1CC1)c1ccc(F)c(F)c1Nc1ccc(I)cc1Cl [CI-1040]
Cell Viability (Colon cancer organoid [1]; [4]): 38.2974%
Cell Viability (Colon cancer organoid [1]; [5]): 73.8424%
Cell Viability (Colon cancer organoid [1]; [6]): 7.023%
Cell Viability (Colon cancer organoid [1]; [7]): 67.7326%
Cell Viability (Colon cancer organoid [2]; [4]): 43.8229%
Cell Viability (Colon cancer organoid [2]; [5]): 195.336%
Cell Viability (Colon cancer organoid [2]; [6]): 27.7103%
Cell Viability (Colon cancer organoid [2]; [7]): 59.0843%
Cell Viability (Colon cancer organoid [3]; [4]): 16.7737%
Cell Viability (Colon cancer organoid [3]; [5]): 86.2158%
Cell Viability (Colon cancer organoid [3]; [6]): 10.461%
Cell Viability (Colon cancer organoid [3]; [7]): 42.9063%

O=C(c1ccc(F)c(F)c1Nc1ccc(I)cc1F)N1CC(O)([C@@H]2CCCCN2)C1 [COBIMETINIB]
Cell Viability (Colon cancer organoid [1]; [4]): 5.143%
Cell Viability (Colon cancer organoid [1]; [5]): 42.4292%
Cell Viability (Colon cancer organoid [1]; [6]): 6.053%
Cell Viability (Colon cancer organoid [1]; [7]): 35.0976%
Cell Viability (Colon cancer organoid [2]; [4]): 4.023%
Cell Viability (Colon cancer organoid [2]; [5]): 77.761%
Cell Viability (Colon cancer organoid [2]; [6]): 4.662%
Cell Viability (Colon cancer organoid [2]; [7]): 37.2771%
Cell Viability (Colon cancer organoid [3]; [4]): 2.787%
Cell Viability (Colon cancer organoid [3]; [5]): 24.389%
Cell Viability (Colon cancer organoid [3]; [6]): 1.583%
Cell Viability (Colon cancer organoid [3]; [7]): 12.612%

COc1c(OCCCN2CCOCC2)ccc2c1N=C(NC(=O)c1cnc(N)nc1)N1CCN=C21 [COPANLISIB]
Cell Viability (Colon cancer organoid [1]; [4]): 1.487%
Cell Viability (Colon cancer organoid [1]; [5]): 40.0213%
Cell Viability (Colon cancer organoid [1]; [6]): 1.127%
Cell Viability (Colon cancer organoid [1]; [7]): 24.3347%
Cell Viability (Colon cancer organoid [2]; [4]): 2.276%
Cell Viability (Colon cancer organoid [2]; [5]): 117.524%
Cell Viability (Colon cancer organoid [2]; [6]): 0.6907%
Cell Viability (Colon cancer organoid [2]; [7]): 109.388%
Cell Viability (Colon cancer organoid [3]; [4]): 3.879%
Cell Viability (Colon cancer organoid [3]; [5]): 63.1617%
Cell Viability (Colon cancer organoid [3]; [6]): 2.323%
Cell Viability (Colon cancer organoid [3]; [7]): 50.5605%

COCC(=O)NC/C=C/c1ccc2ncnc(Nc3ccc(Oc4ccc(C)nc4)c(C)c3)c2c1 [CP-724714]
Cell Viability (Colon cancer organoid [1]; [4]): 64.178%
Cell Viability (Colon cancer organoid [1]; [5]): 58.1065%
Cell Viability (Colon cancer organoid [1]; [6]): 46.8341%
Cell Viability (Colon cancer organoid [1]; [7]): 91.801%
Cell Viability (Colon cancer organoid [2]; [4]): 97.3561%
Cell Viability (Colon cancer organoid [2]; [5]): 94.0282%
Cell Viability (Colon cancer organoid [2]; [6]): 76.6577%
Cell Viability (Colon cancer organoid [2]; [7]): 85.6537%
Cell Viability (Colon cancer organoid [3]; [4]): 60.8642%
Cell Viability (Colon cancer organoid [3]; [5]): 107.55%
Cell Viability (Colon cancer organoid [3]; [6]): 48.0446%
Cell Viability (Colon cancer organoid [3]; [7]): 87.9569%

CN([C@@H]1CCc2c(CC(=O)O)c3cc(S(C)(=O)=O)ccc3n2C1)S(=O)(=O)c1ccc(F)cc1 [CRTH2-negative-control]
Cell Viability (Colon cancer organoid [1]; [4]): 107.688%
Cell Viability (Colon cancer organoid [1]; [5]): 114.368%
Cell Viability (Colon cancer organoid [1]; [6]): 103.342%
Cell Viability (Colon cancer organoid [1]; [7]): 104.475%
Cell Viability (Colon cancer organoid [2]; [4]): 107.561%
Cell Viability (Colon cancer organoid [2]; [5]): 126.69%
Cell Viability (Colon cancer organoid [2]; [6]): 138.147%
Cell Viability (Colon cancer organoid [2]; [7]): 108.987%
Cell Viability (Colon cancer organoid [3]; [4]): 89.9276%
Cell Viability (Colon cancer organoid [3]; [5]): 115.062%
Cell Viability (Colon cancer organoid [3]; [6]): 117.685%
Cell Viability (Colon cancer organoid [3]; [7]): 97.6178%

CNC(=O)c1ccc(Nc2ncc(C(F)(F)F)c(NCc3nccnc3N(C)S(C)(=O)=O)n2)cc1 [DEFACTINIB]
Cell Viability (Colon cancer organoid [1]; [4]): 127.858%
Cell Viability (Colon cancer organoid [1]; [5]): 116.047%
Cell Viability (Colon cancer organoid [1]; [6]): 102.967%
Cell Viability (Colon cancer organoid [1]; [7]): 60.766%
Cell Viability (Colon cancer organoid [2]; [4]): 57.0475%
Cell Viability (Colon cancer organoid [2]; [5]): 79.7534%
Cell Viability (Colon cancer organoid [2]; [6]): 66.5234%
Cell Viability (Colon cancer organoid [2]; [7]): 63.7293%
Cell Viability (Colon cancer organoid [3]; [4]): 83.442%
Cell Viability (Colon cancer organoid [3]; [5]): 104.135%
Cell Viability (Colon cancer organoid [3]; [6]): 42.8527%
Cell Viability (Colon cancer organoid [3]; [7]): 104.257%

CCN(CCO)CCCOc1ccc2c(Nc3cc(CC(=O)Nc4cccc(F)c4)[nH]n3)ncnc2c1 [DEFOSBARASERTIB]
Cell Viability (Colon cancer organoid [1]; [4]): 10.7234%
Cell Viability (Colon cancer organoid [1]; [5]): 183.999%
Cell Viability (Colon cancer organoid [1]; [6]): 3.3988%
Cell Viability (Colon cancer organoid [1]; [7]): 94.753%
Cell Viability (Colon cancer organoid [2]; [4]): 5.365%
Cell Viability (Colon cancer organoid [2]; [5]): 225.013%
Cell Viability (Colon cancer organoid [2]; [6]): 11.3206%
Cell Viability (Colon cancer organoid [2]; [7]): 105.29%
Cell Viability (Colon cancer organoid [3]; [4]): 15.638%
Cell Viability (Colon cancer organoid [3]; [5]): 174.95%
Cell Viability (Colon cancer organoid [3]; [6]): 26.1499%
Cell Viability (Colon cancer organoid [3]; [7]): 95.9515%

Cn1c(C2(NC(=O)c3ccc4c(C5CCCC5)c(-c5ncc(Br)cn5)n(C)c4c3)CCC2)nc2ccc(/C=C/C(=O)O)cc21 [DELEOBUVIR]
Cell Viability (Colon cancer organoid [1]; [4]): 116.632%
Cell Viability (Colon cancer organoid [1]; [5]): 84.3073%
Cell Viability (Colon cancer organoid [1]; [6]): 123.499%
Cell Viability (Colon cancer organoid [1]; [7]): 101.583%
Cell Viability (Colon cancer organoid [2]; [4]): 79.9036%
Cell Viability (Colon cancer organoid [2]; [5]): 130.288%
Cell Viability (Colon cancer organoid [2]; [6]): 108.218%
Cell Viability (Colon cancer organoid [2]; [7]): 110.732%
Cell Viability (Colon cancer organoid [3]; [4]): 94.147%
Cell Viability (Colon cancer organoid [3]; [5]): 102.969%
Cell Viability (Colon cancer organoid [3]; [6]): 81.1663%
Cell Viability (Colon cancer organoid [3]; [7]): 89.5103%

CN1CCN(Cc2ccc(Nc3ncc(Cl)c(Nc4ccccc4S(=O)(=O)N(C)C)n3)cc2)CC1 [DUBERMATINIB]
Cell Viability (Colon cancer organoid [1]; [4]): 0.5937%
Cell Viability (Colon cancer organoid [1]; [5]): 0.7151%
Cell Viability (Colon cancer organoid [1]; [6]): 0.6913%
Cell Viability (Colon cancer organoid [1]; [7]): 2.891%
Cell Viability (Colon cancer organoid [2]; [4]): 1.045%
Cell Viability (Colon cancer organoid [2]; [5]): 16.1981%
Cell Viability (Colon cancer organoid [2]; [6]): 1.218%
Cell Viability (Colon cancer organoid [2]; [7]): 12.0094%
Cell Viability (Colon cancer organoid [3]; [4]): 0.6117%
Cell Viability (Colon cancer organoid [3]; [5]): 1.021%
Cell Viability (Colon cancer organoid [3]; [6]): 1.267%
Cell Viability (Colon cancer organoid [3]; [7]): 1.499%

Cn1cc(C2=C(c3cn(C4CCN(Cc5ccccn5)CC4)c4ccccc34)C(=O)NC2=O)c2ccccc21 [ENZASTAURIN]
Cell Viability (Colon cancer organoid [1]; [4]): 65.6638%
Cell Viability (Colon cancer organoid [1]; [5]): 92.7001%
Cell Viability (Colon cancer organoid [1]; [6]): 58.602%
Cell Viability (Colon cancer organoid [1]; [7]): 101.572%
Cell Viability (Colon cancer organoid [2]; [4]): 54.9568%
Cell Viability (Colon cancer organoid [2]; [5]): 78.6109%
Cell Viability (Colon cancer organoid [2]; [6]): 53.3905%
Cell Viability (Colon cancer organoid [2]; [7]): 66.2903%
Cell Viability (Colon cancer organoid [3]; [4]): 77.4844%
Cell Viability (Colon cancer organoid [3]; [5]): 94.2381%
Cell Viability (Colon cancer organoid [3]; [6]): 86.5336%
Cell Viability (Colon cancer organoid [3]; [7]): 83.0179%

C[C@H](NC(=O)Nc1cc2[nH]ncc2c(CO)n1)c1ccccn1 [ERKi-NC]
Cell Viability (Colon cancer organoid [1]; [4]): 88.473%
Cell Viability (Colon cancer organoid [1]; [5]): 87.7291%
Cell Viability (Colon cancer organoid [1]; [6]): 101.937%
Cell Viability (Colon cancer organoid [1]; [7]): 116.172%
Cell Viability (Colon cancer organoid [2]; [4]): 108.541%
Cell Viability (Colon cancer organoid [2]; [5]): 124.126%
Cell Viability (Colon cancer organoid [2]; [6]): 136.018%
Cell Viability (Colon cancer organoid [2]; [7]): 90.7734%
Cell Viability (Colon cancer organoid [3]; [4]): 88.9935%
Cell Viability (Colon cancer organoid [3]; [5]): 102.074%
Cell Viability (Colon cancer organoid [3]; [6]): 55.928%
Cell Viability (Colon cancer organoid [3]; [7]): 92.432%

C[C@@H](NC(=O)Nc1cc2[nH]ncc2c(CO)n1)c1ccccc1 [ERKi]
Cell Viability (Colon cancer organoid [1]; [4]): 117.766%
Cell Viability (Colon cancer organoid [1]; [5]): 104.277%
Cell Viability (Colon cancer organoid [1]; [6]): 23.2555%
Cell Viability (Colon cancer organoid [1]; [7]): 96.7542%
Cell Viability (Colon cancer organoid [2]; [4]): 50.0756%
Cell Viability (Colon cancer organoid [2]; [5]): 135.339%
Cell Viability (Colon cancer organoid [2]; [6]): 64.2382%
Cell Viability (Colon cancer organoid [2]; [7]): 68.0141%
Cell Viability (Colon cancer organoid [3]; [4]): 33.887%
Cell Viability (Colon cancer organoid [3]; [5]): 108.528%
Cell Viability (Colon cancer organoid [3]; [6]): 11.5857%
Cell Viability (Colon cancer organoid [3]; [7]): 66.9878%

O=C(Nc1nc2cccc(-c3ccc(CN4CCS(=O)(=O)CC4)cc3)n2n1)C1CC1 [FILGOTINIB]
Cell Viability (Colon cancer organoid [1]; [4]): 100.525%
Cell Viability (Colon cancer organoid [1]; [5]): 92.8016%
Cell Viability (Colon cancer organoid [1]; [6]): 121.161%
Cell Viability (Colon cancer organoid [1]; [7]): 92.1067%
Cell Viability (Colon cancer organoid [2]; [4]): 112.545%
Cell Viability (Colon cancer organoid [2]; [5]): 86.0918%
Cell Viability (Colon cancer organoid [2]; [6]): 106.088%
Cell Viability (Colon cancer organoid [2]; [7]): 87.0807%
Cell Viability (Colon cancer organoid [3]; [4]): 124.013%
Cell Viability (Colon cancer organoid [3]; [5]): 111.823%
Cell Viability (Colon cancer organoid [3]; [6]): 119.446%
Cell Viability (Colon cancer organoid [3]; [7]): 102.655%
